Data from ChEMBL document CHEMBL1177822, “Synthesis and anti-HIV activity of 2'-deoxy-2'-fluoro-4'-C-ethynyl nucleoside analogs” (Bioorg Med Chem Lett, 2010).

Tests used:
[1] = Cytotoxicity against human MT2 cells by MTT assay; assay type: cell-based
[2] = system: Human immunodeficiency virus 1; assay: Ratio of compound IC50 to 1-(20-deoxy-40-C-ethynyl-beta-D-arabinofuranosyl)-thymine IC50 for HIV1 bearing VSV glycoprotein infected in human MT2 cells assessed as inhibition of viral replication after 48 hrs by luciferase reporter gene assay; assay type: functional
[3] = system: Human immunodeficiency virus 1; assay: Antiviral activity against HIV1 bearing VSV glycoprotein infected in human MT2 cells assessed as inhibition of viral replication after 48 hrs by luciferase reporter gene assay; assay type: functional, organism-based; conditions: Human immunodeficiency virus 1, MT2, 48 h
[4] = system: Human immunodeficiency virus 1; assay: Ratio of compound IC50 to zidovudine IC50 for HIV1 bearing VSV glycoprotein infected in human MT2 cells assessed as inhibition of viral replication after 48 hrs by luciferase reporter gene assay; assay type: functional
[5] = system: Human immunodeficiency virus 1; assay: Antiviral activity against wild type HIV1 NL4-3 infected in human TZM-bl cells assessed as inhibition of viral replication after 4 days by p24 based ELISA; assay type: functional, organism-based; conditions: Human immunodeficiency virus 1, NL4-3, TZM-bl, 96 h
[6] = system: Human immunodeficiency virus 1; assay: Antiviral activity against HIV1 NL4-3 with reverse transcriptase K101E mutant infected in human TZM-bl cells assessed as inhibition of viral replication after 4 days by p24 based ELISA; assay type: functional, organism-based; conditions: Human immunodeficiency virus 1, NL4-3, TZM-bl, 96 h
[7] = system: Human immunodeficiency virus 1; assay: Antiviral activity against reverse transcriptase multidrug-resistant HIV1 infected in human TZM-bl cells assessed as inhibition of viral replication after 4 days by p24 based ELISA; assay type: functional, organism-based; conditions: Human immunodeficiency virus 1, TZM-bl, 96 h

C#C[C@]1(CO)O[C@@H](n2cc(C)c(=O)[nH]c2=O)[C@@H](F)[C@@H]1O
CC50 [1]: > 10000 nM | Ratio IC50 [2]: 10 | IC50 [3]: 86 nM

C#C[C@]1(CO)O[C@@H](n2ccc(=O)[nH]c2=O)[C@@H](F)[C@@H]1O
CC50 [1]: > 10000 nM | IC50 [3]: 6530 nM

C#C[C@]1(CO)O[C@@H](n2ccc(N)nc2=O)[C@@H](F)[C@@H]1O
CC50 [1]: > 10000 nM | Ratio IC50 [4]: 35 | IC50 [5]: 0.46 nM | IC50 [6]: 1.52 nM | IC50 [7]: 1.45 nM | IC50 [3]: 1.34 nM

Cc1cn([C@H]2C[C@H](N=[N+]=[N-])[C@@H](CO)O2)c(=O)[nH]c1=O [ZIDOVUDINE]
CC50 [1]: > 200000 nM | IC50 [3]: 47 nM
